± gives the expanded uncertainty stated by the source.
Settings: Ring tensiometer

CCCCn1cc[n+](C)c1C.O=S(=O)([N-]S(=O)(=O)C(F)(F)F)C(F)(F)F
surface tension liquid-gas (293.15 K): 37.4 ± 0.55 mN/m
surface tension liquid-gas (303.15 K): 35.54 ± 0.52 mN/m
surface tension liquid-gas (313.15 K): 33.83 ± 0.5 mN/m
surface tension liquid-gas (323.15 K): 32.2 ± 0.48 mN/m
surface tension liquid-gas (333.15 K): 30.49 ± 0.46 mN/m
surface tension liquid-gas (343.15 K): 28.74 ± 0.44 mN/m

CCn1cc[n+](CC)c1.O=S(=O)([N-]S(=O)(=O)C(F)(F)F)C(F)(F)F [1,3-diethylimidazolium bis[(trifluoromethyl)sulfonyl]imide]
surface tension liquid-gas (293.15 K): 35.76 ± 0.52 mN/m
surface tension liquid-gas (303.15 K): 35.37 ± 0.52 mN/m
surface tension liquid-gas (313.15 K): 34.94 ± 0.51 mN/m
surface tension liquid-gas (323.15 K): 34.56 ± 0.51 mN/m
surface tension liquid-gas (333.15 K): 34.15 ± 0.5 mN/m
surface tension liquid-gas (343.15 K): 33.7 ± 0.5 mN/m

CCCC[N+]1(C)CCCC1.O=S(=O)([N-]S(=O)(=O)C(F)(F)F)C(F)(F)F
surface tension liquid-gas (293.15 K): 34.93 ± 0.51 mN/m
surface tension liquid-gas (303.15 K): 34.35 ± 0.51 mN/m
surface tension liquid-gas (313.15 K): 33.65 ± 0.5 mN/m
surface tension liquid-gas (323.15 K): 33.17 ± 0.49 mN/m
surface tension liquid-gas (333.15 K): 32.61 ± 0.48 mN/m
surface tension liquid-gas (343.15 K): 31.96 ± 0.48 mN/m

CCC[n+]1cccc(C)c1.O=S(=O)([N-]S(=O)(=O)C(F)(F)F)C(F)(F)F
surface tension liquid-gas (293.15 K): 36 ± 0.53 mN/m
surface tension liquid-gas (303.15 K): 35.53 ± 0.52 mN/m
surface tension liquid-gas (313.15 K): 35.1 ± 0.52 mN/m
surface tension liquid-gas (323.15 K): 34.53 ± 0.51 mN/m
surface tension liquid-gas (333.15 K): 34.05 ± 0.5 mN/m
surface tension liquid-gas (343.15 K): 33.55 ± 0.5 mN/m

CCC[N+]1(C)CCCC1.O=S(=O)([N-]S(=O)(=O)C(F)(F)F)C(F)(F)F
surface tension liquid-gas (293.15 K): 32.54 ± 0.48 mN/m
surface tension liquid-gas (303.15 K): 31.95 ± 0.48 mN/m
surface tension liquid-gas (313.15 K): 31.5 ± 0.47 mN/m
surface tension liquid-gas (323.15 K): 31 ± 0.46 mN/m
surface tension liquid-gas (333.15 K): 30.47 ± 0.46 mN/m
surface tension liquid-gas (343.15 K): 29.97 ± 0.45 mN/m

CCCCCCCCCCCCCC[P+](CCCCCC)(CCCCCC)CCCCCC.O=S(=O)([N-]S(=O)(=O)C(F)(F)F)C(F)(F)F
surface tension liquid-gas (293.15 K): 30.75 ± 0.46 mN/m
surface tension liquid-gas (303.15 K): 30.25 ± 0.46 mN/m
surface tension liquid-gas (313.15 K): 29.52 ± 0.45 mN/m
surface tension liquid-gas (323.15 K): 28.87 ± 0.44 mN/m
surface tension liquid-gas (333.15 K): 28.21 ± 0.43 mN/m
surface tension liquid-gas (343.15 K): 27.59 ± 0.42 mN/m
